The subject of data set [1] is cardiomyocyte H9c2 cells. The data set can be described thus: Cytotoxicity / cell viability assay with Cell Counting Kit-8. To be noted: 50 μM, 24 h, CCK-8. It is filed as cell-based. The method, then: (§1) FIGS. 6a and 6b provide graphs of (a) the cell viability of cardiomyocyte H9c2 cells following incubation of the RSSH precursor 4d (50 μM) and phenylcynamide (200 μM) for 24 h; and (b) the cytoprotective effects of the RSSH precursor 4d observed following pretreatment of H9c2 cells with either 4d (50 μM) or phenylcynamide (200 μM) for 2 h, followed by hydrogen peroxide (200 μM) treatment for 2 h. Quantification of cell viability was carried out using Cell Counting Kit-8 (CCK-8). Results are expressed as the mean±SEM (n=6).
The cytotoxicity and impact on cell viability of the hydropersulfide (RSSH) precursor 4d have been examined using the cardiomyocyte H9C2 cell line and Cell Counting Kit-8 (CCK-8). A cell viability assay reveled that 4d was not cytotoxic at 50 μM ([…]).
(In general: Tetrazolium assays rely on reduction of a dye to a coloured formazan, in cell work by metabolically active cells.)

A short description of data set [2]: UPLC-MS analysis of RSSH trapping with N-ethylmaleimide. Type of data set: physicochemical. To be noted: UPLC-MS. The method, then: FIGS. 2a and 2b provide graphs of (a) UPLC-MS chromatograms of RSSH generation from 4d (200 μM) in the presence of NEM (4 mM) incubated in pH 7.4 ammonium bicarbonate (100 mM) with DTPA (100 μM) at 37° C. A peak at 3.7 min corresponding to N-ethylmaleamic acid (NEMA), derived from NEM hydrolysis, was observed under these conditions (see SI); (b) MS spectrum (ESI+ mode) of the product eluting at 5.06 min corresponding to 5a with m/z 349.0885 (expected m/z 349.0886).
FIG. 5 provides a graph of UPLC-MS chromatograms of RSSH generation from compound 1 (1 mM) in the presence of NEM (5 mM) incubated in pH 7.4 ammonium bicarbonate buffer containing DTPA (100 μM) for 30 min at 37° C. The asterisk indicates the methyl ester analogue of dialkyl trisulfide 2, which was also formed due to the presence of minor amount of methyl ester analogue of 1. A peak at 3.7 min corresponding to N-ethylmaleamic acid (NEMA), derived from NEM hydrolysis, was observed under these conditions.
RSSH trapping in the presence of N-ethylmaleimide (NEM) was carried out with a Waters Acquity/Xevo-G2 UPLC-MS system equipped with an ACQUITY UPLC BEH C18 column (2.1 mm×50 mm, 1.7 μm). Typically, RSSH precursor (1 eq) was incubated with NEM (5 to 20 eq) in freshly prepared pH 7 4 ammonium bicarbonate buffer (100 mM) containing DTPA (100 μM) at 37° C. An aliquot of the reaction mixture (300 μL) was withdrawn at specified time points, quenched with 0.25% formic acid (300 μL), and filtered through a 0.22 μm filter. The samples were then loaded into vials in an autosampler maintained at 4° C. and analyzed using UPLC-MS as follows: Mobile phase: 0-1 min 90% water+0% ACN+10% formic acid (0.1%); 1-7.5 min gradient up to 10% water+80% ACN+10% formic acid (0.1%); 7.5-8.4 min 10% water+80% ACN+10% formic acid (0.1%); 8.4-8.5 min gradient up to 90% water+0% ACN+10% formic acid (0.1%), 8.5-10 min 90% water+0% ACN+10% formic acid (0.1%). Flow rate=0.3 mL min^−1. The mass signals for products of RSSH trapping with NEM were obtained via deconvolution using MassLynx 4.1 software.
To a solution of NEM (5 mM) in pH 7 4 ammonium bicarbonate (100 mM) with DTPA (100 μM) in a 20-mL scintillation vial, hydropersulfide precursor 1 (1 mM, total reaction volume 3 mL) was added. The resulting mixture was incubated at 37° C. for 30 min. An aliquot of 300 μL reaction mixture was withdrawn, quenched with 300 μL of formic acid (0.25%) and analyzed using UPLC-MS.

Data set [3] can be described thus: Decomposition of precursor at pH 6 and pH 8.5. It is filed as physicochemical. The text has this: Based on the clean formation of hydropersulfide and aryl cyanamide during decomposition of 4d-h, the general mechanism shown in Scheme 5 is proposed. Neutralization of S-alkyl-thioisothiourea 7 (or its resonance partner 7a) occurs at pH 7.4 to produce a neutral species 8 and/or 8a, which can further undergo an elimination reaction to produce RSSH and aryl cyanamide. The elimination reaction can be initiated by either donation of the imine-nitrogen lone pair of 8 to form aryl cyanamide and RSSH (Scheme 5, eq. 2) or deprotonation of the arylamino-nitrogen proton to form RSSH and an aryl carbodiimide, which can further undergo tautomerization to afford the aryl cyanamide (Scheme 5, eq. 3). Alternately, an elimination reaction can be initiated by donation of the nitrogen lone pair of intermediate 8a to produce RSSH and aryl carbodiimide (Scheme 5, eq. 1). The decomposition of precursor 4d was examined at pH 6 and pH 8.5. […] In addition, the thermodynamic stability of the aryl cyanamide produced could contribute to the observed rate of RSSH release.

Data set [4] concerns cardiomyocyte H9c2 cells. The experiment in a line: Cytoprotection against hydrogen peroxide-induced cytotoxicity. Type of data set: cell-based. To be noted: pretreatment 2 h (4d 50 μM; phenyl cyanamide 200 μM), then H2O2 200 μM 2 h, CCK-8. The procedure: as §1
Since hydropersulfides are reported to mitigate oxidative stress, the ability of RSSH precursor 4d to protect cardiomyocyte H9c2 cells from cytotoxicity induced by hydrogen peroxide (H2O2) was tested.

Data set [5] is described as follows: Kinetics of RSSH generation by 1H NMR with NEM trapping. Type of data set: physicochemical. To be noted: pH 7.4 buffer with 20% MeOD, pH 7.4; read-out: half-life of precursor.

Molecules are shown by their SMILES.

`CC(=O)NC(C(=O)O)C(C)(C)SSC(=N)Nc1ccccc1.Cl` (centres unmarked) [Precursor 4d, ((1-acetamido-1-carboxy-2-methylpropan-2-yl)disulfaneyl)(phenylamino)methaniminium chloride] yielded a melting point of 155 to 157 °C. Further, the “cytotoxicity (cell viability)” value in the data set on cardiomyocyte H9c2 cells [1] was “not cytotoxic”. For the same molecule, the “RSSH generation (RSS-NEM adduct formation)” value in data set [2] (NEM trap, pH 7.4 buffer, 37° C.) is reported as “clean conversion of 4d to the RSS-NEM adduct 5a”. Besides, the “phenyl cyanamide yield from precursor decomposition” value in data set [2] (NEM, pH 7.4, 37° C.) was found to be 94%. The decomposition rate result in data set [3] (pH 6 (lower pH)) is reported as “substantially slowed”. The decomposition rate result in data set [3] (pH 8.5 (higher pH)) is “increased”. Moreover, the “cytoprotection from H2O2-induced cytotoxicity” value with cardiomyocyte H9c2 cells [4] is given as “significant cytoprotection”. Besides, the half-life in data set [5] is 4.3 min.

Usually melting point stands for the temperature of the solid-liquid transition. One may read the half-life as how long it takes for the measured level to halve.

For the origin of these results see US11926580B2, “Hydropersulfide precursors” (THE JOHNS HOPKINS UNIVERSITY, priority 2018, dated 2024).
